Data published in US20220290140A1, “TRANS-CYCLOOCTENE LABELED ANTISENSE OLIGONUCLEOTIDES, RADIO LABELED TETRAZINE AND METHODS” (Biogen MA Inc., priority 2019, published 2022).
Where two headings read alike, the source gives them in different places.

Experiments:
[1] = target: T1, BCRP (Homo sapiens, UniProt Q9UNQ0); assay: in vitro; type: in vitro ADME; conditions: dog
T1 construct: expressed in transfected cells; host or cells: MDCK (canine kidney) cells expressing BCRP
T1 sequence (Q9UNQ0 1-655): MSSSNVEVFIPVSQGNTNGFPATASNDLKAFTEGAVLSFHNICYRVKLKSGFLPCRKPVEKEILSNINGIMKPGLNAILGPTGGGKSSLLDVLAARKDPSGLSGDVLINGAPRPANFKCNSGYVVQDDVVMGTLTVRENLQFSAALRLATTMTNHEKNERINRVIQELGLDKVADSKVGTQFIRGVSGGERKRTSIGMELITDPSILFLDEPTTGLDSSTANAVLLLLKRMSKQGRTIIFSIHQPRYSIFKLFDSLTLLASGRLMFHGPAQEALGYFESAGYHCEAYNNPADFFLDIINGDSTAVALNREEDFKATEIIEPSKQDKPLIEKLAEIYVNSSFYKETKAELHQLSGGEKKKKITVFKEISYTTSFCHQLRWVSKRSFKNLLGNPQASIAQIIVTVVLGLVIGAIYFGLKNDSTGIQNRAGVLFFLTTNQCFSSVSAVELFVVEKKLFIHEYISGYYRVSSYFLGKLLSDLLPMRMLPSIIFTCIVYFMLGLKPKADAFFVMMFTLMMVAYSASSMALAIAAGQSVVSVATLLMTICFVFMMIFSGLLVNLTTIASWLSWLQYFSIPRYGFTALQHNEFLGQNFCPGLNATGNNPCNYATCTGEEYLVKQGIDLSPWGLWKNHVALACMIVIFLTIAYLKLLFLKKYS
Description: (§1) As pretargeting is a 2-component system, an ^18F-Tz was developed to be CNS-penetrant based on cnsPET-MPO modeling (Zhang, L., et al. (2018). J Med Chem 61(8): 3296-3308).

[2] = Plasma protein binding (PPB); type: in vitro ADME; conditions: rat, read-out: PPB (rat) unbound
Description: as §1

[3] = Brain protein binding (BPB); type: in vitro ADME
Description: as §1

[4] = Microsome stability; type: in vitro ADME; conditions: microsomes; read-out: Microsome Stability t1/2
[5] = design: species or system mice; conditions: mouse, in vivo, 10 min
Description: as §1

[6] = rat, in vivo, 1 mg/kg
Protocol: Dynamic PET scans were performed with arterial sampling to determine parent fraction of the tracer ^18F-537-Tz in baseline and pretargeted scans. Baseline imaging with a comparison to a homologous block with non-radioactive compound ^19F-537-Tz at 1 mg/kg was performed on a single rat, where non-radioactive compound was administered i.v. 5 min before injection of tracer. Next, three additional rats were imaged at baseline with no ASO-TCO administered. A final three rats received pretargeted scans and were dosed intrathecally with 0.56 mg Malat1 ASO-TCO in 30 μL saline followed by a 40 μL saline flush. 24 h after injection of the ASO, ^18F-537-Tz was injected intravenously and dynamic PET imaging performed.
A metabolite analysis method was developed to enable the tracer kinetic modelling using metabolite corrected plasma activity as an input function. The plasma radioactivity extraction efficiency for all samples was determined and was satisfactory using 1:1 plasma:ACN. The recovery from the HPLC column of the injected radioactivity was determined for each plasma extract injected. Good recovery of the injected radioactivity from the HPLC column was obtained for each plasma extract injection. For the 3 baseline scans, the parent compound fraction of the total activity found in plasma was 86-90% at 5 min, and this fraction decreased to 66-74% at 60 min after ^18F-537-Tz injection. […]

[7] = Static PET/CT of upper spine and CSF; type: in vivo, rat
Description: The static PET/CT images of ^18F-537-Tz uptake in the upper rat spine are illustrated in FIG. 12. […] There was a 10% and 15% increase in the radioactivity uptake in the spine and CSF when comparing the baseline and post ASO-TCO dosed rats (Table 4).

[8] = Dynamic PET/CT of brain in NHP, baseline and post Malat1 ASO-TCO; type: in vivo; conditions: cynomolgus monkey
Protocol: The pretargeting PET tracer ^18F-537-Tz was tested in a cynomolgus monkey, including baseline scans and a homologous blocking scan. The monkey was then dosed with Malat1 ASO-TCO and scanned again at 24 h and 168 h.
(§2) Dynamic PET scans (0-120 min) with arterial input function were performed on a female cynomolgous monkey using ^18F-537-Tz (5.7±0.7 mCi, 0.14±0.12 μg) in order to evaluate the tracer's efficacy in non-human primates. Parent fraction of tracer in arterial plasma was determined by extracting tracer using acetonitrile and analysis by radioHPLC. Baseline scans were performed first, measuring tracer kinetics in the brain. Malat1 ASO-TCO (20 mg in 2.4 mL aCSF) was then injected intrathecally under fluoroscopic guidance and ^18F-537-Tz PET/CT imaging performed at 24 h and 168 h under isoflurane anesthesia. Imaging data were co-registered to a cyno brain atlas, and TAC in subregions of interest were derived from them. Static PET/CT scans were acquired in each imaging session, with the field of view (FOV) oriented to capture the spine. This scan took place 130-160 min p.i. of tracer, and an ROI drawn over the spinal cord with muscle as a reference region.

[9] = Static PET/CT of spine in NHP, spinal cord ROI with muscle as reference; type: in vivo; conditions: cynomolgus monkey, 24 h post-ASO scan
Protocol: as §2

[10] = baseline vs post ASO-TCO dosed rats
[11] = rats, Baseline group, ca. 70-80 min after tracer injection

SMILES: O=C(Cc1ccc(-c2nncnn2)cc1)NCC[18F] [Compound 1]
- efflux ratio [1]: 0.51
- fraction unbound [2]: 0.375
- BPB (rat) unbound [3]: 51%
- half-life [4]: 84 min
- brain uptake [5]: 1.7±0.9 % ID
- parent compound fraction of total activity in plasma ([6]; 5 min): 82%
- parent compound fraction of total activity in plasma ([6]; 60 min): 62%
- increase in radioactivity uptake in the CSF [7, 10]: 15%
- increase in radioactivity uptake in the spine [7, 10]: 10%
- Radioactivity uptake CSF [7, 11]: 1.18
- Radioactivity uptake Spine [7, 11]: 0.95
- Radioactivity uptake Spine ([7]; rats, Pretargeted group (i.t. dosing of ASO-TCO), ca. 70-80 min after tracer injection): 1.04
- % Change of radioactivity uptake CSF ([7]; rats, Pretargeted vs Baseline): 16%
- % Change of radioactivity uptake Spine ([7]; rats, Pretargeted vs Baseline): 9%
- uptake of the tracer in the brain, baseline PET/CT ([8]; 2-hour scan): good uptake
- SUV uptake, baseline vs post-ASO scans (whole brain ROI) ([8]; 24 h and 7 days after Malat1 ASO-TCO i.t.): No significant different
- difference in SUV between baseline and pretargeted scans in the brain ([8]; normalized TACs, final timepoint): ~10%
- spinal cord SUV normalized to muscle, higher signal than baseline scan [9]: ~25%
